Read-outs that look alike come from different tables or passages of the source.
Assays:
[1] = target: EGFR wildtype (Homo sapiens, UniProt P00533); assay: Biochemical EGFR kinase assay (Lance Ultra TR-FRET), wildtype
Description: (§1) Biochemical EGFR kinase assays were conducted using Lance Ultra time-resolved fluorescence resonance energy transfer (TR-FRET) technology from Perkin-Elmer. Compounds of the invention were initially diluted to 20 mM in 100% DMSO for storage and made into kinase buffer solution to create a compound concentration ranging from 0.003 μM and 10 μM.
(§2) Each kinase reactions were incubated at room temperature for 1 hour and then stopped by the addition of 4 μL of stop solution (10 mM EDTA). The specific Europium-labeled-anti-phosphopeptide antibody (PerkinElmer, AD0069) diluted in LANCE detection buffer was then added to a final concentration of 2 nM. After 60 minutes incubation at room temperature the LANCE signal was measured on an EnVision Multilabel Reader (Perkin-Elmer). Excitation wavelength was set at 320 nm and emission monitored at 615 nm (donor) and 665 nm (acceptor). The IC50 values were determined using GraphPad prism software (GraphPad Software, Inc., San Diego, CA, USA).

[2] = target: EGFR L858R/T790M/C797S (Homo sapiens, UniProt P00533, C797S/L858R/T790M); assay: Biochemical EGFR kinase assay (Lance Ultra TR-FRET), triple mutant L858R/T790M/C797S
EGFR L858R/T790M/C797S, sequence (P00533 25-1210 T790M/C797S/L858R): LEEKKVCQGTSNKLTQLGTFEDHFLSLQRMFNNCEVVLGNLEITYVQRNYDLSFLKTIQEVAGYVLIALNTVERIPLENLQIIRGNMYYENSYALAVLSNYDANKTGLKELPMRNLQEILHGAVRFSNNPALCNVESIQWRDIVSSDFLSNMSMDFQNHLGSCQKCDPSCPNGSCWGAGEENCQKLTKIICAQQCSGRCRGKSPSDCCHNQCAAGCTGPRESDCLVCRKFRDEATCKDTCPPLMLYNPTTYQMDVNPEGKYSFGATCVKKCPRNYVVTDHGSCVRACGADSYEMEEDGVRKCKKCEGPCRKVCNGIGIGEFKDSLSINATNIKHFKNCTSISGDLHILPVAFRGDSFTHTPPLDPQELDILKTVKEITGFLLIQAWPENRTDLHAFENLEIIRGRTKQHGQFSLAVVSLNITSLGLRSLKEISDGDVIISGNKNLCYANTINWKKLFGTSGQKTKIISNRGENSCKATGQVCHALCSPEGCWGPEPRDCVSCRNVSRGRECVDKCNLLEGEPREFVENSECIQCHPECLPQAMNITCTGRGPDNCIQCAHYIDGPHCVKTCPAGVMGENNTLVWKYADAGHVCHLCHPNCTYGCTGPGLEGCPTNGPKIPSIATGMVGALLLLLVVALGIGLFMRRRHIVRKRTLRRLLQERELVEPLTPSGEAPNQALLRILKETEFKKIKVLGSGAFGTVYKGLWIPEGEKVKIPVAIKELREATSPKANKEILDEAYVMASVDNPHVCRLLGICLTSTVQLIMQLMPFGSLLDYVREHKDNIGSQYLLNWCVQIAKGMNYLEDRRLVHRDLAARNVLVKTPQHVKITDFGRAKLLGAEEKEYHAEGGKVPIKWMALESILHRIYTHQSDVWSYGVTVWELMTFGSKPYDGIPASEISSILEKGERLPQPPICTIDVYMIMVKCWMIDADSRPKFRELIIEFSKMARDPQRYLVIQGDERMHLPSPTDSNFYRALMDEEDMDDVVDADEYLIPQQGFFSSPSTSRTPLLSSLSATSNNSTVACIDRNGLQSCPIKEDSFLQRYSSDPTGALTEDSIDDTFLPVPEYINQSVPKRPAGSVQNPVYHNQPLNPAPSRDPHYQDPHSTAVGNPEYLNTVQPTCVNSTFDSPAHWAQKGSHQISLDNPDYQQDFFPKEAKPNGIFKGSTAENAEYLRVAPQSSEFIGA
Description: as §1, §2

[3] = target: EGFR del19/C797S (Homo sapiens, UniProt P00533, C797S/DEL746-750); assay: Biochemical EGFR kinase assay (Lance Ultra TR-FRET), double mutant del19/C797S
EGFR del19/C797S, sequence (P00533 with tags, fused parts or gaps DEL746-750/C797S): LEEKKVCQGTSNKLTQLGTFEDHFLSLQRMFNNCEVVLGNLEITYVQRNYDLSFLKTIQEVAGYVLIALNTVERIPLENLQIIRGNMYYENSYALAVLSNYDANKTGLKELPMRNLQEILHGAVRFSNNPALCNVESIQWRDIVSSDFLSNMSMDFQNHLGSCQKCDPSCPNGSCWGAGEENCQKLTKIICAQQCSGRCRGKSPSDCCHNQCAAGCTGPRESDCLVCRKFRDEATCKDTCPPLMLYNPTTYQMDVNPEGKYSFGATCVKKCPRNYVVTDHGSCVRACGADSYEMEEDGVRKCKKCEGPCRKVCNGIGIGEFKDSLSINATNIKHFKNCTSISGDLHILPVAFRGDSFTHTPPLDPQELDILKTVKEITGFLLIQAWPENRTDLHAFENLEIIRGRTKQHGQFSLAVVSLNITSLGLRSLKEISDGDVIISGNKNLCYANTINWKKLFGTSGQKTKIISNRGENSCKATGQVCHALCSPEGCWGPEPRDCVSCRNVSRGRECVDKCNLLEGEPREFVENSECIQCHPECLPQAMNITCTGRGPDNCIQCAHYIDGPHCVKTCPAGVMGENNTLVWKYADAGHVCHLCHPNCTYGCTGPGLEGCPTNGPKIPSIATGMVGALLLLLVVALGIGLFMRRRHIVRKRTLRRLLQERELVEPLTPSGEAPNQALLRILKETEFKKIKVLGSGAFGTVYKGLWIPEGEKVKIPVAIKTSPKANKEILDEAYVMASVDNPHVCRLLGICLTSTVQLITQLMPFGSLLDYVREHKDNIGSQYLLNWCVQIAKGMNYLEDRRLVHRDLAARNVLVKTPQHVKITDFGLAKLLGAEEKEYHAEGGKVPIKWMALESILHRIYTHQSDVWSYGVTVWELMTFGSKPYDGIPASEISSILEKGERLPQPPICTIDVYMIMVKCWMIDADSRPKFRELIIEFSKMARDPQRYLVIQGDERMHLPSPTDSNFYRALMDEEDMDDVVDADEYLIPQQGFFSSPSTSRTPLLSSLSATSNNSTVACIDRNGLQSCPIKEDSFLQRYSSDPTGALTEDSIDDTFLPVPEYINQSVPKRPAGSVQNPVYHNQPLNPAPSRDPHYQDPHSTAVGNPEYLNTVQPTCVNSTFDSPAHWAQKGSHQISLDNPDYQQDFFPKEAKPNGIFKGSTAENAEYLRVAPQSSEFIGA
Description: as §1, §2

[4] = target: EGFR del19/T790M/C797S (Homo sapiens, UniProt P00533, C797S/DEL746-750/T790M); assay: Biochemical EGFR kinase assay (Lance Ultra TR-FRET), triple mutant del19/T790M/C797S
Description: as §1, §2

[5] = target: EGFR L858R/C797S (Homo sapiens, UniProt P00533, C797S/L858R); assay: Biochemical EGFR kinase assay (Lance Ultra TR-FRET), double mutant L858R/C797S
EGFR L858R/C797S, sequence (P00533 25-1210 C797S/L858R): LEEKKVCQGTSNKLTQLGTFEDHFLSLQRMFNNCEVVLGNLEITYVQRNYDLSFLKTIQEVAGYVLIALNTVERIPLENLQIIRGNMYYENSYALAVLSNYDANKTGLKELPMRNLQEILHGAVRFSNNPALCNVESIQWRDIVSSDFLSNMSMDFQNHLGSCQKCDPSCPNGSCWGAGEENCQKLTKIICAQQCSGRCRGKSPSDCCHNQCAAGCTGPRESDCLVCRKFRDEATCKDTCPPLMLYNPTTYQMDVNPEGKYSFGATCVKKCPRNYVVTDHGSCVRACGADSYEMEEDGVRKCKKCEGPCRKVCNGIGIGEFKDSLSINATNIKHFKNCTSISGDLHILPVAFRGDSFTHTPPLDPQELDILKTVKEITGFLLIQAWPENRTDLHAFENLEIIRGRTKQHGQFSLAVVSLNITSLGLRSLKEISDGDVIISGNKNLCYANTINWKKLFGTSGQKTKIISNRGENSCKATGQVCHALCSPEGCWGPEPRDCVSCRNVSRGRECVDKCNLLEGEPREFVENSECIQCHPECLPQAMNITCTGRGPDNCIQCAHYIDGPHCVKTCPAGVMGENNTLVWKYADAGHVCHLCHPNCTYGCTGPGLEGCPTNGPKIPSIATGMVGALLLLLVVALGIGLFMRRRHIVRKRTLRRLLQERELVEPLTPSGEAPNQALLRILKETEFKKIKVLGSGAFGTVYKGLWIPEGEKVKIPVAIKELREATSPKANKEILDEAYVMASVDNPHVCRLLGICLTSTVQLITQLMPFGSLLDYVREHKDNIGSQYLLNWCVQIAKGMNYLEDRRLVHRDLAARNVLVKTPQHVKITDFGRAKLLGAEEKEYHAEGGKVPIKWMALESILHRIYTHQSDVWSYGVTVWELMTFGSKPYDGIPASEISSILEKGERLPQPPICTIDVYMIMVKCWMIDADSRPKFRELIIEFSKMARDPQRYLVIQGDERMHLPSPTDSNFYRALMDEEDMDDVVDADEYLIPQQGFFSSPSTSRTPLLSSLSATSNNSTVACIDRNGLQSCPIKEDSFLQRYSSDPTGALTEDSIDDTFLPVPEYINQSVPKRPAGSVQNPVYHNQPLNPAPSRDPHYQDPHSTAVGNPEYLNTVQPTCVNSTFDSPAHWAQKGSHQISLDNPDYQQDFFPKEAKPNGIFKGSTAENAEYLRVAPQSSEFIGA
Description: as §1, §2

[6] = IC50 WT (nM) 100 μM ATP, 100 μM ATP
[7] = Km ATP, read-out: IC50 WT (nM) Km ATP
[8] = IC50 L858R/T790M/C797S (nM) 100 μM ATP, 100 μM ATP
[9] = Km ATP, read-out: IC50 L858R/T790M/C797S (nM) Km ATP
[10] = IC50 del19/C797S (nM) 100 μM ATP, 100 μM ATP
[11] = Km ATP, read-out: IC50 del19/C797S (nM) Km ATP
[12] = IC50 del19/T790M/C797S (nM) 100 μM ATP, 100 μM ATP
[13] = Km ATP, read-out: IC50 del19/T790M/C797S (nM) Km ATP
[14] = IC50 L858R/C797S (nM) 100 μM ATP, 100 μM ATP
[15] = Km ATP, read-out: IC50 L858R/C797S (nM) Km ATP
[16] = ATP at Km, read-out: IC50 WT, Km ATP
[17] = ATP at Km, read-out: IC50 L858R/T790M/C797S, Km ATP
[18] = ATP at Km, read-out: IC50 del19/C797S, Km ATP
[19] = ATP at Km, read-out: IC50 del19/T790M/C797S, Km ATP
[20] = IC50 del19/T790M/C797S, 100 μM ATP
[21] = ATP at Km, read-out: IC50 L858R/C797S, Km ATP

EGFR wildtype, sequence (P00533 25-1210): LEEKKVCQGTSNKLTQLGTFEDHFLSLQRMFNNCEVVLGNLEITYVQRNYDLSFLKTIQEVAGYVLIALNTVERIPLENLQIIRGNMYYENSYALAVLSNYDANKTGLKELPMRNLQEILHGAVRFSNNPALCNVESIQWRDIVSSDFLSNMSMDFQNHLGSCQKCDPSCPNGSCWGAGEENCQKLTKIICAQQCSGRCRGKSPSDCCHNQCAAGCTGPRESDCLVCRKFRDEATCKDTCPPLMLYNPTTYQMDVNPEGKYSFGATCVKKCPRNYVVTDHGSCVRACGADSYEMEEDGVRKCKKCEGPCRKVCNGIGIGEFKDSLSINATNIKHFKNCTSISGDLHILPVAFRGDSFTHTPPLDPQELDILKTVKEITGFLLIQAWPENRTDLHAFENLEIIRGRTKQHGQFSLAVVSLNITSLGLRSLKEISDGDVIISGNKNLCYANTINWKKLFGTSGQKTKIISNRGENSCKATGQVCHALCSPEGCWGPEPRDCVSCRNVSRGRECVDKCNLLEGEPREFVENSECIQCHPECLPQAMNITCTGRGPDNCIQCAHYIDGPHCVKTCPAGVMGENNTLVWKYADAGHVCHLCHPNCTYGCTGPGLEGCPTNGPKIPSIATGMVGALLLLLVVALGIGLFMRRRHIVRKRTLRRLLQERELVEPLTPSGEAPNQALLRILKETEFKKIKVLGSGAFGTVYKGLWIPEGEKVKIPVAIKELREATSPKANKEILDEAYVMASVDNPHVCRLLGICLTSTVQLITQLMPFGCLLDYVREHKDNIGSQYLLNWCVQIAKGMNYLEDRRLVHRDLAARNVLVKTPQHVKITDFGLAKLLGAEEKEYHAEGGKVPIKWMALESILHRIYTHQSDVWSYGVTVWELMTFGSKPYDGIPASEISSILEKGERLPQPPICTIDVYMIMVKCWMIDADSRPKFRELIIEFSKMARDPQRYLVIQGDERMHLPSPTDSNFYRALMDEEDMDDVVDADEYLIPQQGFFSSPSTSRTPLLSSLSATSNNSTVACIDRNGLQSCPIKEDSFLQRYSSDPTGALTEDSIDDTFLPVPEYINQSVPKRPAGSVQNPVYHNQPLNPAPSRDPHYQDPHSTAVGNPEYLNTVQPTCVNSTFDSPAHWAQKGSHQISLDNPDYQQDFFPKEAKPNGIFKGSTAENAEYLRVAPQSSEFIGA

Compound	IC50 [1, 6] [nM]	IC50 [1, 7] [nM]	IC50 [2, 8] [nM]	IC50 [2, 9] [nM]	IC50 [3, 10] [nM]	IC50 [3, 11] [nM]	IC50 [4, 12] [nM]	IC50 [4, 13] [nM]	IC50 [5, 14] [nM]	IC50 [5, 15] [nM]	IC50 [4, 19] [nM]	further results
CN1CCN(Cc2ccc(-c3cnc(Nc4ccnc(-c5cnn(S(=O)(=O)C6CC6)c5)n4)cc3N3CCC(C)(CO)CC3)nc2)CC1 [Example 1, (1-(6′-((2-(1-(Cyclopropylsulfonyl)-1H-pyrazol-4-yl)pyrimidin-4-yl)amino)-5-((4-methylpiperazin-1-yl)methyl)-[2,3′-bipyridin]-4′-yl)-4-methylpiperidin-4-yl)methanol]	> 10000	212	1.3	0.4	52.3	37.5	0.8	1.2	223	10.5	–	–
C[C@]1(O)CC[C@@H](Nc2cc(Nc3ccnc(-c4cnn(S(=O)(=O)C5CC5)c4)n3)ncc2-c2ccc(F)cn2)CC1 [Example 6, (1s,4s)-4-((6′-((2-(1-(Cyclopropylsulfonyl)-1H-pyrazol-4-yl)pyrimidin-4-yl)amino)-5-fluoro-[2,3′-bipyridin]-4′-yl)amino)-1-methylcyclohexan-1-ol]	> 10000	–	0.1	–	0.4	0.2	0.1	0.2	6.5	0.3	–	–
C[C@]1(O)CC[C@@H](Nc2cc(Nc3ccnc(-c4cnn(S(=O)(=O)C5CC5)c4)n3)ncc2-c2ccc(C#N)cn2)CC1 [Example 7, 6′-((2-(1-(Cyclopropylsulfonyl)-1H-pyrazol-4-yl)pyrimidin-4-yl)amino)-4′-(((1s,4s)-4-hydroxy-4-methylcyclohexyl)amino)-[2,3′-bipyridine]-5-carbonitrile]	> 10000	3	0.2	0.1	–	0.5	0.2	0.4	12.4	0.6	–	–
Cc1ccc(-c2cnc(Nc3ccnc(-c4cnn(S(=O)(=O)C5CC5)c4)n3)cc2N[C@H]2CC[C@@](C)(O)CC2)nc1 [Example 8, (1s,4s)-4-((6′-((2-(1-(Cyclopropylsulfonyl)-1H-pyrazol-4-yl)pyrimidin-4-yl)amino)-5-methyl-[2,3′-bipyridin]-4′-yl)amino)-1-methylcyclohexan-1-ol]	8890	1	0.2	0.1	0.7	0.4	0.2	0.4	6.3	0.4	–	–
CN1CCN(Cc2ccc(-c3cnc(Nc4ccnc(-c5cnn(S(=O)(=O)C6CC6)c5)n4)cc3N[C@H]3CC[C@@](C)(O)CC3)nc2)CC1 [Example 9, (1s,4s)-4-((6′-((2-(1-(Cyclopropylsulfonyl)-1H-pyrazol-4-yl)pyrimidin-4-yl)amino)-5-((4-methylpiperazin-1-yl)methyl)-[2,3′-bipyridin]-4′-yl)amino)-1-methylcyclohexan-1-ol]	167	1	0.3	0.1	0.7	0.2	0.1	–	1.9	0.2	–	–
CN1CCN(Cc2ccc(-c3cnc(Nc4ccnc(-c5cnn(S(=O)(=O)C6CC6)c5)n4)cc3N[C@H]3CC[C@](O)(CO)CC3)nc2)CC1 [Example 11, (1s,4s)-4-((6′-((2-(1-(Cyclopropylsulfonyl)-1H-pyrazol-4-yl)pyrimidin-4-yl)amino)-5-((4-methylpiperazin-1-yl)methyl)-[2,3′-bipyridin]-4′-yl)amino)-1-(hydroxymethyl)cyclohexan-1-ol]	586	1.4	0.2	0.1	0.4	0.2	0.1	–	2.1	0.4	–	–
COc1ccc(-c2cnc(Nc3ccnc(-c4cnn(S(=O)(=O)C5CC5)c4)n3)cc2N[C@H]2CC[C@@](C)(O)CC2)nn1 [Example 53, (1s,4s)-4-((2-((2-(1-(Cyclopropylsulfonyl)-1H-pyrazol-4-yl)pyrimidin-4-yl)amino)-5-(6-methoxypyridazin-3-yl)pyridin-4-yl)amino)-1-methylcyclohexan-1-ol]	> 10000	6.9	0.5	0.1	–	–	0.4	0.4	1	1	–	–
C[C@]1(O)CC[C@@H](Nc2cc(Nc3ccnc(-c4cnn(S(=O)(=O)C5CC5)c4)n3)ncc2-c2cnc(OC(F)F)cn2)CC1 [Example 128, (1s,4s)-4-((2-((2-(1-(Cyclopropylsulfonyl)-1H-pyrazol-4-yl)pyrimidin-4-yl)amino)-5-(5-(difluoromethoxy)pyrazin-2-yl)pyridin-4-yl)amino)-1-methylcyclohexan-1-ol]	–	> 10000	–	0.5	–	41.2	–	–	–	95.8	–	–
CN1CCC(Oc2cnc(-c3cnc(Nc4ccnc(-c5cnn(S(=O)(=O)C6CC6)c5)n4)cc3N[C@H]3CC[C@@](C)(O)CC3)cn2)CC1 [Example 145, (1s,4s)-4-((2-((2-(1-(Cyclopropylsulfonyl)-1H-pyrazol-4-yl)pyrimidin-4-yl)amino)-5-(5-((1-methylpiperidin-4-yl)oxy)pyrazin-2-yl)pyridin-4-yl)amino)-1-methylcyclohexan-1-ol]	–	–	–	0.03	–	0.3	–	0.1	–	0.1	–	–
CC(C)(O)c1ccc(-c2cnc(Nc3ccnc(-c4cnn(S(=O)(=O)C5CC5)c4)n3)cc2NC2CCN(CCF)CC2)nc1 [Example 176, 2-(6′-((2-(1-(Cyclopropylsulfonyl)-1H-pyrazol-4-yl)pyrimidin-4-yl)amino)-4′-((1-(2-fluoroethyl)piperidin-4-yl)amino)-[2,3′-bipyridin]-5-yl)propan-2-ol]	–	–	–	–	–	–	–	–	–	–	0.2	IC50 [1, 16]: 43.4 nM; IC50 [2, 17]: 0.4 nM; IC50 [3, 18]: 5.5 nM
C[C@]1(O)CC[C@@H](Nc2cc(Nc3ccnc(-c4cnn(S(=O)(=O)C5CC5)c4)n3)ncc2-c2ccc(S(=O)(=O)N3CCOCC3)cn2)CC1 [Example 182, (1s,4s)-4-((6′-((2-(1-(Cyclopropylsulfonyl)-1H-pyrazol-4-yl)pyrimidin-4-yl)amino)-5-(morpholinosulfonyl)-[2,3′-bipyridin]-4′-yl)amino)-1-methylcyclohexan-1-ol]	–	–	–	–	–	–	–	–	–	–	2.9	IC50 ([1]; IC50 WT, 100 μM ATP): > 10000 nM; IC50 ([3]; IC50 del19/C797S, 100 μM ATP): 3.7 nM; IC50 [4, 20]: 6.4 nM; IC50 [5, 21]: 0.9 nM; IC50 ([5]; IC50 L858R/C797S, 100 μM ATP): 3.5 nM
CC(C)(O)[C@H]1CC[C@@H](Nc2cc(Nc3ccnc(-c4cnn(S(=O)(=O)C5CC5)c4)n3)ncc2-c2ccc(OCCO)cn2)CC1 [Example 207, 2-((1s,4s)-4-((6′-((2-(1-(Cyclopropylsulfonyl)-1H-pyrazol-4-yl)pyrimidin-4-yl)amino)-5-(2-hydroxyethoxy)-[2,3′-bipyridin]-4′-yl)amino)cyclohexyl)propan-2-ol]	–	–	–	–	–	–	–	–	–	–	1.3	IC50 [1, 16]: 3.8 nM; IC50 ([1]; IC50 WT, 100 μM ATP): 1790 nM; IC50 [2, 17]: 0.3 nM; IC50 ([2]; IC50 L858R/T790M/C797S, 100 μM ATP): 0.8 nM; IC50 [4, 20]: 1.6 nM; IC50 [5, 21]: 1 nM; IC50 ([5]; IC50 L858R/C797S, 100 μM ATP): 14 nM
CC(C)Nc1cc(Nc2ccnc(-c3cnn(S(=O)(=O)C4CC4)c3)n2)ncc1-c1ccc(C(C)(O)C(F)(F)F)cn1 (stereo not shown) [Example 295, 2-(6′-((2-(1-(Cyclopropylsulfonyl)-1H-pyrazol-4-yl)pyrimidin-4-yl)amino)-4′-(isopropylamino)-[2,3′-bipyridin]-5-yl)-1,1,1-trifluoropropan-2-ol]	–	–	–	–	–	–	–	–	–	–	10.4	IC50 [1, 16]: 44.7 nM; IC50 [3, 18]: 49.2 nM; IC50 [5, 21]: 26.5 nM
CN1CCC(Oc2ccc(-c3cnc(Nc4nc(-c5cnn(S(=O)(=O)C6CC6)c5)ncc4F)cc3N[C@H]3CC[C@@](C)(O)CC3)nc2)CC1 [Example 300, (1s,4s)-4-((6′-((2-(1-(Cyclopropylsulfonyl)-1H-pyrazol-4-yl)-5-fluoropyrimidin-4-yl)amino)-5-((1-methylpiperidin-4-yl)oxy)-[2,3′-bipyridin]-4′-yl)amino)-1-methylcyclohexan-1-ol]	–	–	–	–	–	–	–	–	–	–	0.3	IC50 [2, 17]: 0.1 nM; IC50 [3, 18]: 0.4 nM; IC50 [5, 21]: 0.2 nM
